For this assay, the system named is M. tuberculosis H37Rv.

For the compound Carbon dioxide, the “effect on viability / lethality (words, FIG. 1)” value is reported as “only a slight lethal effect”.
The value for `[HH]` [hydrogen] was “as effective as Bioblend”.

These data come from patent US20130133650A1, “GAS-BASED TREATMENT FOR INFECTIVE DISEASE” (priority 2010, published 2013).
